Experimental data published in patent US20240148821A1, “PHARMACEUTICAL USE OF CYCLIC PEPTIDE COMPOUND” (CHUGAI SEIYAKU KABUSHIKI KAISHA, priority 2021, published 2024).
Numbered stars: 1 amine (or outer) side, 2 acyl side, 3 side chain; on linkers, the order of the positions; unused ones are H or OH. Bridge positions count the residues as written; N and C are the ends. Square brackets hold non-standard residues; d marks the D form. Peptide text beside a SMILES is read from it. * marks the point of attachment. hPhe(3-Cl-4-CF3) = N[C@@H](CCc1ccc(C(F)(F)F)c(Cl)c1)C(=O)O; hPhe(3-F,4-CF3) = N[C@@H](CCc1ccc(C(F)(F)F)c(F)c1)C(=O)O; NMePhe(4-CF3) = CN[C@@H](Cc1ccc(C(F)(F)F)cc1)C(=O)O; NMePhe(4-CN) = CN[C@@H](Cc1ccc(C#N)cc1)C(=O)O; NMePhe(3-Cl) = CN[C@@H](Cc1cccc(Cl)c1)C(=O)O; NMePhe(4-Me) = CN[C@@H](Cc1ccc(C)cc1)C(=O)O; NMePhe(4-F) = CN[C@@H](Cc1ccc(F)cc1)C(=O)O; NMedβ3hAla = C[C@H](CC(=O)[*:2])N(C)[*:1]; NMeGly(cPent) = CN[C@H](C(=O)O)C1CCCC1; Phe(2-OMe) = COc1ccccc1C[C@H](N)C(=O)O; Phe(3-I) = N[C@@H](Cc1cccc(I)c1)C(=O)O; NMeCha = CN[C@@H](CC1CCCCC1)C(=O)O; NMeChg = CN[C@H](C(=O)O)C1CCCCC1; NMeD = CN[C@@H](CC(=O)O)C(=O)O; NMeL = CN[C@@H](CC(C)C)C(=O)O; NMeV = CN[C@H](C(=O)O)C(C)C; d(β3hA) = C[C@@H](N)CC(=O)O; dNMeS = CN[C@H](CO)C(=O)O; NMeA = CN[C@@H](C)C(=O)O; NMeAib = CNC(C)(C)C(=O)O; Piperidide = C1CCN(*)CC1; Pra = C#CC[C@H](N)C(=O)O; dNMeA = CN[C@H](C)C(=O)O; Ac5c = NC1(C(=O)O)CCCC1; Aze = O=C(O)[C@@H]1CCN1; Isopentyl = CC(C)CC*; Sar = CNCC(=O)O

The compounds below were run on Human pancreatic cancer cell line AsPC-1 (G12D mutation Kras) (assay: AsPC-1 cell growth inhibition (AsPC-1 CGI)). Conditions: read-out: AsPC-1 cell growth inhibition, 50% growth inhibitory concentration (IC50 value); 96 hours, CellTiter-Glo, values classified in ranges.
Format: cell-based
Protocol: Test compounds were serially dilated with dimethyl sulfoxide, and 200 nL was then dispensed to a U-bottom 96-well plate using Labcyte Echo. […] The cell suspension was dispensed to a. plate containing a test compound at 100 μL per well and incubated at 37° C. in a 5% carbon dioxide gas incubator. 96 hours later, 80 μL of CellTiter-Glo (Promega) was added to each well and fluorescence was measured.
Work on `CC[C@H](C)[C@@H]1NC(=O)[C@H](CC(C)C)N(C)C(=O)C[C@@H](C(=O)N2CCCCC2)N(C)C(=O)[C@H](C2CCCC2)N(C)C(=O)C2(CCCC2)NC(=O)[C@@H](COCCC(C)C)N(C)C(=O)[C@H](CCc2ccc(C(F)(F)F)c(Cl)c2)NC(=O)CN(C)C(=O)[C@H](CC2CCCCC2)N(C)C(=O)CN(C)C(=O)CN(C)C1=O` [Compound 1440] ([NMeL]I[Sar][Sar][NMeCha][Sar][hPhe(3-Cl-4-CF3)][dNMeS](Isopentyl)[Ac5c][NMeGly(cPent)][NMeD]-Piperidide; lactam N-11) yielded an IC50 greater than 500 nM. Work on `C#CC[C@@H]1NC(=O)[C@H](Cc2cccc(I)c2)NC(=O)CN(C)C(=O)[C@H](Cc2ccc(F)cc2)N(C)C(=O)[C@@H]2CCN2C(=O)[C@H](C)N(C)C(=O)[C@H]([C@@H](C)CC)NC(=O)[C@H](CC(C)C)N(C)C(=O)C[C@@H](C(=O)N2CCCCC2)N(C)C(=O)[C@H](CC(C)C)NC(=O)C(C)(C)N(C)C1=O` [Compound 1230] ([NMeL]I[NMeA][Aze][NMePhe(4-F)][Sar][Phe(3-I)][Pra][NMeAib]L[NMeD]-Piperidide; lactam N-11) yielded an IC50 greater than 500 nM. In the case of `CC[C@H](C)[C@@H]1NC(=O)[C@H](CC(C)C)N(C)C(=O)C[C@@H](C(=O)N2CCCCC2)N(C)C(=O)[C@H](CC(C)C)NC(=O)C(C)(C)N(C)C(=O)[C@H](CC(C)C)NC(=O)[C@H](CCc2ccc(C(F)(F)F)c(F)c2)NC(=O)CN(C)C(=O)[C@H](CC2CCCCC2)N(C)C(=O)CN(C)C(=O)CN(C)C1=O` [Compound 969] ([NMeL]I[Sar][Sar][NMeCha][Sar][hPhe(3-F,4-CF3)]L[NMeAib]L[NMeD]-Piperidide; lactam N-11), the IC50 is reported as greater than 500 nM. For `CC[C@H](C)[C@@H]1NC(=O)[C@H](CC(C)C)N(C)C(=O)C[C@@H](C(=O)N2CCCCC2)N(C)C(=O)[C@H](CC(C)C)NC(=O)C(C)(C)N(C)C(=O)[C@H](Cc2ccccc2OC)NC(=O)[C@H](Cc2cccc(I)c2)NC(=O)CN(C)C(=O)[C@H](Cc2ccc(C)cc2)N(C)C(=O)[C@@H]2CCN2C(=O)CN(C)C1=O` [Compound 459] ([NMeL]I[Sar][Aze][NMePhe(4-Me)][Sar][Phe(3-I)][Phe(2-OMe)][NMeAib]L[NMeD]-Piperidide; lactam N-11), the IC50 was greater than 500 nM. `CC[C@H](C)[C@@H]1NC(=O)[C@H](CC(C)C)N(C)C(=O)C[C@@H](C(=O)N(C)C)N(C)C(=O)[C@H](C2CCCC2)N(C)C(=O)C2(CCCC2)NC(=O)[C@H](Cc2cccc(Cl)c2)N(C)C(=O)[C@H](CCc2ccc(C(F)(F)F)c(Cl)c2)NC(=O)CN(C)C(=O)[C@H](CC2CCCCC2)N(C)C(=O)[C@@H]2CCN2C(=O)[C@H](C)N(C)C1=O` [Compound 179] ([NMeL]I[NMeA][Aze][NMeCha][Sar][hPhe(3-Cl-4-CF3)][NMePhe(3-Cl)][Ac5c][NMeGly(cPent)][NMeD]-NMe2; lactam N-11) was tested, and the IC50 was greater than 500 nM. `CC[C@H](C)[C@@H]1NC(=O)[C@H](CC(C)C)N(C)C(=O)C[C@@H](C)N(C)C(=O)[C@H](CC(C)C)NC(=O)C(C)(C)N(C)C(=O)[C@H](CC(C)C)NC(=O)[C@H](CCc2ccc(C(F)(F)F)c(Cl)c2)NC(=O)CN(C)C(=O)[C@H](Cc2ccc(C(F)(F)F)cc2)N(C)C(=O)[C@@H]2CCN2C(=O)CN(C)C1=O` [Compound 1403] (cyclo([Aze][NMePhe(4-CF3)][Sar][hPhe(3-Cl-4-CF3)]L[NMeAib]L[NMedβ3hAla][NMeL]I[Sar])) was tested, and the IC50 was greater than 500 nM. Compound `CC[C@H](C)[C@@H]1NC(=O)[C@H](CC(C)C)N(C)C(=O)C[C@@H](C(=O)N2CCCCC2)N(C)C(=O)[C@H](C2CCCCC2)N(C)C(=O)[C@H](C)NC(=O)[C@@H]2CCCN2C(=O)[C@H](CCc2ccc(C(F)(F)F)c(Cl)c2)NC(=O)CN(C)C(=O)[C@H](CC2CCCCC2)N(C)C(=O)CN(C)C(=O)CN(C)C1=O` [Compound 591] ([NMeL]I[Sar][Sar][NMeCha][Sar][hPhe(3-Cl-4-CF3)]PA[NMeChg][NMeD]-Piperidide; lactam N-11) has an IC50 greater than 500 nM. `CC[C@H](C)[C@@H]1NC(=O)[C@H](C)N(C)C(=O)C[C@@H](C(=O)N2CCCCC2)N(C)C(=O)[C@H](C(C)C)N(C)C(=O)C2(CCCC2)NC(=O)[C@@H]2CCCN2C(=O)[C@H](CCc2ccc(C(F)(F)F)c(Cl)c2)NC(=O)[C@@H](C)N(C)C(=O)[C@H](CC2CCCCC2)N(C)C(=O)[C@@H]2CCN2C(=O)[C@H](C)N(C)C1=O` [Compound 1103] ([NMeA]I[NMeA][Aze][NMeCha][dNMeA][hPhe(3-Cl-4-CF3)]P[Ac5c][NMeV][NMeD]-Piperidide; lactam N-11) showed an IC50 greater than 500 nM. `CC[C@H](C)[C@@H]1NC(=O)[C@H](CC(C)C)N(C)C(=O)C[C@@H](C)NC(=O)[C@H](C(C)C)N(C)C(=O)C2(CCCC2)NC(=O)[C@@H]2CCCN2C(=O)[C@H](CCc2ccc(C(F)(F)F)c(Cl)c2)NC(=O)CN(C)C(=O)[C@H](Cc2ccc(C#N)cc2)N(C)C(=O)CN(C)C(=O)CN(C)C1=O` [Compound 564] (cyclo([Ac5c][NMeV][d(β3hA)][NMeL]I[Sar][Sar][NMePhe(4-CN)][Sar][hPhe(3-Cl-4-CF3)]P)) showed an IC50 greater than 500 nM. Work on `CC(C)C[C@H]1C(=O)N[C@@H](CO)C(=O)N(C)[C@@H](C)C(=O)N2CC[C@H]2C(=O)N(C)[C@@H](CC2CCCCC2)C(=O)N(C)CC(=O)N[C@@H](CCc2ccc(C(F)(F)F)c(Cl)c2)C(=O)N2CCC[C@H]2C(=O)NC2(CCCC2)C(=O)N(C)[C@@H](C(C)C)C(=O)N(C)[C@H](C(=O)N2CCCCC2)CC(=O)N1C` [Compound 1768] ([NMeL]S[NMeA][Aze][NMeCha][Sar][hPhe(3-Cl-4-CF3)]P[Ac5c][NMeV][NMeD]-Piperidide; lactam N-11) yielded an IC50 greater than 500 nM.
